ChEMBL document CHEMBL6083269, “Design, synthesis, in vitro and in vivo trypanosomaticidal efficacy of novel 5-nitroindolylazines” (Eur J Med Chem, 2024)
Activity calls are given as the source filed them. The rule behind the calls is not given here.

Assays:
[1] = Cytotoxicity against green monkey Vero cells incubated for 48 hrs by resazurin dye based assay; assay type: toxicity, cell-based; settings: African green monkey (Chlorocebus sabaeus)
[2] = Cytotoxicity against human […]-differentiated THP-1 cells incubated for 72 hrs by resazurin dye based assay; assay type: toxicity, cell-based
[3] = system: Leishmania donovani; assay: Antileishmanial activity against Leishmania donovani 9515 (MHOM/IN/95/9151) promastigote incubated for 48 hrs by resazurin dye based plate reader assay; assay type: functional, organism-based
[4] = Selectivity index, ratio of IC50 for african green monkey Vero cells to IC50 for Leishmania donovani 9515 (MHOM/IN/95/9151) promastigote; assay type: toxicity, cell-based; settings: read-out: Ratio IC50
[5] = Selectivity index, ratio of IC50 for human THP-1 cells to IC50 for Leishmania donovani 9515 (MHOM/IN/95/9151) promastigote; assay type: toxicity, cell-based; settings: read-out: Ratio IC50
[6] = system: Leishmania donovani; assay: Antileishmanial activity against Leishmania donovani 9515 (MHOM/IN/95/9151) amastigote infected in THP-1 cells assessed as inhibition of parasite growth incubated for 72 hrs by resazurin dye based plate reader assay; assay type: functional, organism-based; settings: THP-1, 72 h
[7] = Selectivity index, ratio of IC50 for african green monkey Vero cells to IC50 for static antileishmanial activity against Leishmania donovani 9515 (MHOM/IN/95/9151) amastigote; assay type: toxicity, cell-based; settings: read-out: Ratio IC50
[8] = Selectivity index, ratio of IC50 for human THP-1 cells to IC50 for static antileishmanial activity against Leishmania donovani 9515 (MHOM/IN/95/9151) amastigote; assay type: toxicity, cell-based; settings: read-out: Ratio IC50
[9] = system: Leishmania donovani; assay: Leishmanicidal activity against Leishmania donovani 9515 (MHOM/IN/95/9151) amastigote infected in THP-1 cells incubated for 72 hrs by resazurin dye based plate reader assay; assay type: functional, organism-based; settings: THP-1, 72 h
[10] = Selectivity index, ratio of IC50 for african green monkey Vero cells to IC50 for leishmanicidal activity against Leishmania donovani 9515 (MHOM/IN/95/9151) amastigote; assay type: toxicity, cell-based; settings: read-out: Ratio IC50
[11] = Selectivity index, ratio of IC50 for human THP-1 cells to IC50 for leishmanicidal activity against Leishmania donovani 9515 (MHOM/IN/95/9151) amastigote; assay type: toxicity, cell-based; settings: read-out: Ratio IC50
[12] = system: Leishmania major; assay: Antileishmanial activity against Leishmania major IR-173 (MHO-M/IR/-173) promastigote incubated for 48 hrs by resazurin dye based plate reader assay; assay type: functional, organism-based
[13] = Selectivity index, ratio of IC50 for african green monkey Vero cells to IC50 for Leishmania major IR-173 (MHO-M/IR/-173) promastigote; assay type: toxicity, cell-based; settings: read-out: Ratio IC50
[14] = Selectivity index, ratio of IC50 for human THP-1 cells to IC50 for Leishmania major IR-173 (MHO-M/IR/-173) promastigote; assay type: toxicity, cell-based; settings: read-out: Ratio IC50
[15] = system: Leishmania major; assay: Antileishmanial activity against Leishmania major NIH-S (MHOM/SN/74/Seidman) amastigote infected in THP-1 cells assessed as inhibition of parasite growth incubated for 72 hrs by resazurin dye based plate reader assay; assay type: functional, organism-based; settings: THP-1, 72 h
[16] = Selectivity index, ratio of IC50 for african green monkey Vero cells to IC50 for static antileishmanial activity against Leishmania major NIH-S (MHOM/SN/74/Seidman) amastigote; assay type: toxicity, cell-based; settings: read-out: Ratio IC50
[17] = Selectivity index, ratio of IC50 for human THP-1 cells to IC50 for static antileishmanial activity against Leishmania major NIH-S (MHOM/SN/74/Seidman) amastigote; assay type: toxicity, cell-based; settings: read-out: Ratio IC50
[18] = system: Leishmania major; assay: Leishmanicidal activity against Leishmania major NIH-S (MHOM/SN/74/Seidman) amastigote incubated for 48 hrs by resazurin dye based plate reader assay; assay type: functional, organism-based
[19] = Selectivity index, ratio of IC50 for african green monkey Vero cells to IC50 for leishmanicidal activity against Leishmania major NIH-S (MHOM/SN/74/Seidman) amastigote; assay type: toxicity, cell-based; settings: read-out: Ratio IC50
[20] = Selectivity index, ratio of IC50 for human THP-1 cells to IC50 for leishmanicidal activity against Leishmania major NIH-S (MHOM/SN/74/Seidman); assay type: toxicity, cell-based; settings: read-out: Ratio IC50
[21] = Cytotoxicity against MDBK cells incubated for 72 hrs by CCK8 assay; assay type: toxicity, cell-based, Bos taurus; settings: cattle, MDBK cells
[22] = system: Trypanosoma brucei gambiense; assay: Trypanocidal activity against Trypanosoma brucei gambiense IL1922 incubated for 72 hrs by CellTiter-Glo reagent based […] analysis; assay type: functional, organism-based; settings: IL1922, 72 h
[23] = system: Trypanosoma brucei rhodesiense; assay: Trypanocidal activity against Trypanosoma brucei rhodesiense IL1501 incubated for 72 hrs by CellTiter-Glo reagent based […] analysis; assay type: functional, organism-based; settings: IL1501, 72 h
[24] = system: Trypanosoma brucei brucei; assay: Trypanocidal activity against Trypanosoma brucei brucei GUTat3.1 incubated for 72 hrs by CellTiter-Glo reagent based […] analysis; assay type: functional, organism-based; settings: GUTat3.1, 72 h
[25] = system: Trypanosoma congolense; assay: Trypanocidal activity against Trypanosoma congolense IL3000 incubated for 72 hrs by CellTiter-Glo reagent based […] analysis; assay type: functional, organism-based; settings: IL3000, 72 h
[26] = system: Trypanosoma evansi; assay: Trypanocidal activity against Trypanosoma evansi Tansui incubated for 72 hrs by CellTiter-Glo reagent based […] analysis; assay type: functional, organism-based
[27] = system: Trypanosoma equiperdum; assay: Trypanocidal activity against Trypanosoma equiperdum IVM-t1 incubated for 72 hrs by CellTiter-Glo reagent based […] analysis; assay type: functional, organism-based; settings: IVM-t1, 72 h
[28] = Selectivity index, ratio of CC50 for MDBK to IC50 for Trypanosoma brucei gambiense IL1922; assay type: toxicity, cell-based; settings: cattle, MDBK cells; read-out: Ratio CC50/IC50
[29] = Selectivity index, ratio of CC50 for MDBK to IC50 for Trypanosoma brucei rhodesiense IL1501; assay type: toxicity, cell-based; settings: cattle, MDBK cells; read-out: Ratio CC50/IC50
[30] = Selectivity index, ratio of CC50 for MDBK to IC50 for Trypanosoma brucei brucei GUTat3.1; assay type: toxicity, cell-based; settings: cattle, MDBK cells; read-out: Ratio CC50/IC50
[31] = Selectivity index, ratio of CC50 for MDBK to IC50 for Trypanosoma congolense IL3000; assay type: toxicity, cell-based; settings: cattle, MDBK cells; read-out: Ratio CC50/IC50
[32] = Selectivity index, ratio of CC50 for MDBK to IC50 for Trypanosoma evansi Tansui; assay type: toxicity, cell-based; settings: cattle, MDBK cells; read-out: Ratio CC50/IC50
[33] = Selectivity index, ratio of CC50 for MDBK to IC50 for Trypanosoma equiperdum IVM-t1; assay type: toxicity, cell-based; settings: cattle, MDBK cells; read-out: Ratio CC50/IC50
[34] = system: Trypanosoma cruzi; assay: Antitrypanosomal activity against Trypanosoma cruzi Tulahuen C4 strain trypomastigotes assessed as growth inhibition at 20 uM incubated for 48 hrs by resazurin dye based assay; assay type: functional; design: scale not given: the % may be the effect or the level left
[35] = system: Trypanosoma cruzi; assay: Antitrypanosomal activity against Trypanosoma cruzi Tulahuen C4 strain amastigotes infected in Vero cells incubated for 72 hrs by beta-galactosidase based assay; assay type: functional, organism-based
[36] = Selectivity index, ratio of IC50 for african green monkey Vero cells to IC50 for Trypanosoma cruzi Tulahuen C4 strain; assay type: toxicity, cell-based; settings: read-out: Ratio IC50
[37] = Selectivity index, ratio of IC50 for human THP-1 cells to IC50 for Trypanosoma cruzi Tulahuen C4 strain; assay type: toxicity, cell-based; settings: read-out: Ratio IC50
[38] = system: Trypanosoma congolense; assay: Antitrypanosomal activity against Trypanosoma congolense IL3000 infected in BALB/c mouse assessed as increase in animal survival time at 100 mg/kg, po or 10 mg/kg, ip administered for 7 consecutive days starting from 6 days post infection (reference value: 9 day); assay type: functional; settings: time 7 day
[39] = system: Trypanosoma congolense; assay: Antitrypanosomal activity against Trypanosoma congolense IL3000 infected in BALB/c mouse assessed as animal survival at 100 mg/kg, po or 10 mg/kg, ip administered for 7 consecutive days starting from 6 days post infection and measured after 13 days post infection; assay type: functional, organism-based; settings: time 7.0 day
[40] = Selectivity index, ratio of IC50 for african green monkey Vero cells to IC50 for Leishmania donovani; assay type: toxicity, cell-based; settings: read-out: Ratio IC50

| Structure (SMILES) | IC50 at 48 h [1] | IC50 at 72 h [2] | IC50 [3] | IC50 [6] | selectivity ratio [7] | selectivity ratio [8] | IC50 [9] | selectivity ratio [10] | selectivity ratio [11] | IC50 [12] | selectivity ratio [13] | IC50 [15] | IC50 [18] | CC50 at 72 h [21] | IC50 [22] | IC50 [23] | IC50 [24] | IC50 [25] | IC50 [26] | IC50 [27] | further results |
| --- | --- | --- | --- | --- | --- | --- | --- | --- | --- | --- | --- | --- | --- | --- | --- | --- | --- | --- | --- | --- | --- |
| C#CCn1cc(/C=N\N=C\c2ccc([N+](=O)[O-])o2)c2cc([N+](=O)[O-])ccc21 | 8070 nM | 66300 nM | 200 nM | 3270 nM | 2 | 20 | 3290 nM | 2 | 20 | 80 nM | 106 | 1090 nM | 1410 nM | > 274000 nM | 680 nM | 750 nM | 1240 nM | 80 nM | 1960 nM | 1880 nM | selectivity ratio [4]: 40; selectivity ratio [5]: 332; selectivity ratio [14]: 829; selectivity ratio [16]: 7; selectivity ratio [17]: 60; selectivity ratio [19]: 6; selectivity ratio [20]: 47; selectivity ratio [28]: > 405; selectivity ratio [29]: > 364; selectivity ratio [30]: > 222; selectivity ratio [31]: > 3280; selectivity ratio [32]: > 140; selectivity ratio [33]: > 146; Activity [34]: 22%; IC50 [35]: 1210 nM; selectivity ratio [36]: 6; selectivity ratio [37]: 55; Survival [38]: 9.5 days; Activity [39]: inactive |
| O=[N+]([O-])c1ccc(/C=N/N=C/c2ccc(OCc3ccccc3)cc2)o1 |  |  |  |  |  |  |  |  |  |  |  |  |  |  |  |  |  |  |  |  | selectivity ratio [40]: 400 |
| O=Cc1ccc([N+](=O)[O-])o1 |  |  |  |  |  |  |  |  |  |  |  |  |  |  |  |  |  |  |  |  | selectivity ratio [40]: 2 |
| O=C(Cn1ccnc1[N+](=O)[O-])NCc1ccccc1 [BENZNIDAZOLE] |  |  |  |  |  |  |  |  |  |  |  |  |  |  |  |  |  |  |  |  | Activity [34]: 100%; IC50 [35]: 2700 nM |
| C#CCn1cc(\C=N/N=C/C=C/c2ccccc2)c2cc([N+](=O)[O-])ccc21 | 24500 nM | 35800 nM | > 10000 nM | 340 nM | 75 | 75 | 690 nM | 37 | 52 | 8080 nM | 3 | > 10000 nM | > 10000 nM | 9200 nM | > 70200 nM | > 70200 nM | > 70200 nM | 9400 nM | > 70200 nM | > 70200 nM | selectivity ratio [14]: 4; selectivity ratio [31]: > 29.9 |
| C#CCn1cc(/C=N\N=C\c2ccco2)c2cc([N+](=O)[O-])ccc21 | > 100000 nM | > 100000 nM | > 10000 nM | 890 nM | > 112 | 112 | 2580 nM | > 39 | > 39 | 4900 nM | 20 | > 10000 nM | > 10000 nM | > 312000 nM | > 78000 nM | > 78000 nM | > 78000 nM | > 78000 nM | > 78000 nM | > 78000 nM | selectivity ratio [14]: 20 |
| C#CCn1cc(/C=N\N=C\c2ccc([N+](=O)[O-])s2)c2cc([N+](=O)[O-])ccc21 | 51100 nM | > 100000 nM | 1950 nM | 2340 nM | 22 | 42 | 3510 nM | 15 | > 28 | > 10000 nM |  | 360 nM | 1740 nM | > 263000 nM | 250 nM | 350 nM | 330 nM | 90 nM | 300 nM | 340 nM | selectivity ratio [4]: 26; selectivity ratio [5]: 51; selectivity ratio [16]: 142; selectivity ratio [17]: 278; selectivity ratio [19]: 25; selectivity ratio [20]: 58; selectivity ratio [28]: > 1070; selectivity ratio [29]: > 753; selectivity ratio [30]: > 790; selectivity ratio [31]: > 2950; selectivity ratio [32]: > 864; selectivity ratio [33]: > 780; Activity [34]: 59%; IC50 [35]: 820 nM; selectivity ratio [36]: 62; selectivity ratio [37]: 121; Survival [38]: 10.5 days; Activity [39]: inactive |
